# Reference: ChEMBL document CHEMBL4414676, “Quinazoline-Containing Indole Alkaloids from the Marine-Derived Fungus Aspergillus sp. HNMF114” (J Nat Prod, 2019)
# The source made the active and inactive calls. No cut-off for these calls is given here.
# Test system: SGC-7901
# Experiment: Antiproliferative activity against human SGC7901 cells after 24 to 72 hrs by MTT assay
# Type: functional, cell-based
row,SMILES,Activity
1,CC1(C)C(=O)N2c3ccccc3[C@@]3(C[C@H]4n5c(nc6ccccc6c5=O)C(=O)C(C)(C)[C@@]4(O)O3)[C@@H]2N1O,inactive
2,O=C1N[C@H]2c3nc4ccccc4c(=O)n3[C@@H]1C[C@@]21c2ccccc2N2C(=O)[C@@H]3CCCN3[C@H]21,inactive
3,CC(=O)OC(c1nc2ccccc2c(=O)n1[C@H]1C[C@@]2(OC1=O)C(=O)Nc1ccccc12)C(C)C (stereo partly specified),inactive
4,CC(C)=C1NC(=O)[C@@H](C[C@@]2(O)C(=O)Nc3ccccc32)n2c1nc1ccccc1c2=O,inactive
5,CC(C)[C@@H](O)c1nc2ccccc2c(=O)n1[C@H]1C[C@]2(OC1=O)c1ccccc1N1C(=O)C(C)(C)N(O)[C@H]12,inactive
6,CC(=O)O[C@@H](c1nc2ccccc2c(=O)n1[C@H]1C[C@]2(OC1=O)c1ccccc1N1C(=O)C(C)(C)N[C@H]12)C(C)C,inactive
7,CC(=O)O[C@H](c1nc2ccccc2c(=O)n1[C@@H]1C[C@]2(OC1=O)c1ccccc1N1C(=O)C(C)(C)N(O)[C@H]12)C(C)C,inactive
8,CC(C)[C@H](O)c1nc2ccccc2c(=O)n1[C@H]1C[C@]2(OC1=O)c1ccccc1N1C(=O)C(C)(C)N(O)[C@H]12,inactive

# Test system: Streptococcus agalactiae
# Experiment: Antibacterial activity against Streptococcus agalactiae after 24 hrs by two fold dilution assay
# Type: functional, organism-based
row,SMILES,Activity
1,CC1(C)C(=O)N2c3ccccc3[C@@]3(C[C@H]4n5c(nc6ccccc6c5=O)C(=O)C(C)(C)[C@@]4(O)O3)[C@@H]2N1O,inactive
2,O=C1N[C@H]2c3nc4ccccc4c(=O)n3[C@@H]1C[C@@]21c2ccccc2N2C(=O)[C@@H]3CCCN3[C@H]21,inactive
3,CC(=O)OC(c1nc2ccccc2c(=O)n1[C@H]1C[C@@]2(OC1=O)C(=O)Nc1ccccc12)C(C)C (stereo partly specified),inactive
4,CC(C)=C1NC(=O)[C@@H](C[C@@]2(O)C(=O)Nc3ccccc32)n2c1nc1ccccc1c2=O,inactive
5,CC(C)[C@@H](O)c1nc2ccccc2c(=O)n1[C@H]1C[C@]2(OC1=O)c1ccccc1N1C(=O)C(C)(C)N(O)[C@H]12,inactive
6,CC(=O)O[C@@H](c1nc2ccccc2c(=O)n1[C@H]1C[C@]2(OC1=O)c1ccccc1N1C(=O)C(C)(C)N[C@H]12)C(C)C,inactive
7,CC(=O)O[C@H](c1nc2ccccc2c(=O)n1[C@@H]1C[C@]2(OC1=O)c1ccccc1N1C(=O)C(C)(C)N(O)[C@H]12)C(C)C,inactive
8,CC(C)[C@H](O)c1nc2ccccc2c(=O)n1[C@H]1C[C@]2(OC1=O)c1ccccc1N1C(=O)C(C)(C)N(O)[C@H]12,inactive

# Test system: not listed separately
# Experiment: Inhibition of quorum sensing in C6-HSL-induced Chromobacterium violaceum CV026 assessed as […] by measuring minimum inhibitory dose per well after 18 hrs by well diffusion method
row,SMILES,MIC [µg]
1,CC(=O)OC(c1nc2ccccc2c(=O)n1[C@H]1C[C@@]2(OC1=O)C(=O)Nc1ccccc12)C(C)C (stereo partly specified),32
2,CC(C)=C1NC(=O)[C@@H](C[C@@]2(O)C(=O)Nc3ccccc32)n2c1nc1ccccc1c2=O,16

# Test system: A549
# Experiment: Antiproliferative activity against human A549 cells after 24 to 72 hrs by MTT assay
# Type: functional, cell-based
row,SMILES,Activity
1,CC1(C)C(=O)N2c3ccccc3[C@@]3(C[C@H]4n5c(nc6ccccc6c5=O)C(=O)C(C)(C)[C@@]4(O)O3)[C@@H]2N1O,inactive
2,O=C1N[C@H]2c3nc4ccccc4c(=O)n3[C@@H]1C[C@@]21c2ccccc2N2C(=O)[C@@H]3CCCN3[C@H]21,inactive
3,CC(=O)OC(c1nc2ccccc2c(=O)n1[C@H]1C[C@@]2(OC1=O)C(=O)Nc1ccccc12)C(C)C (stereo partly specified),inactive
4,CC(C)=C1NC(=O)[C@@H](C[C@@]2(O)C(=O)Nc3ccccc32)n2c1nc1ccccc1c2=O,inactive
5,CC(C)[C@@H](O)c1nc2ccccc2c(=O)n1[C@H]1C[C@]2(OC1=O)c1ccccc1N1C(=O)C(C)(C)N(O)[C@H]12,inactive
6,CC(=O)O[C@@H](c1nc2ccccc2c(=O)n1[C@H]1C[C@]2(OC1=O)c1ccccc1N1C(=O)C(C)(C)N[C@H]12)C(C)C,inactive
7,CC(=O)O[C@H](c1nc2ccccc2c(=O)n1[C@@H]1C[C@]2(OC1=O)c1ccccc1N1C(=O)C(C)(C)N(O)[C@H]12)C(C)C,inactive
8,CC(C)[C@H](O)c1nc2ccccc2c(=O)n1[C@H]1C[C@]2(OC1=O)c1ccccc1N1C(=O)C(C)(C)N(O)[C@H]12,inactive

# Test system: Staphylococcus aureus
# Experiment: Antibacterial activity against Staphylococcus aureus after 24 hrs by two fold dilution assay
# Type: functional, organism-based
row,SMILES,Activity
1,CC1(C)C(=O)N2c3ccccc3[C@@]3(C[C@H]4n5c(nc6ccccc6c5=O)C(=O)C(C)(C)[C@@]4(O)O3)[C@@H]2N1O,inactive
2,O=C1N[C@H]2c3nc4ccccc4c(=O)n3[C@@H]1C[C@@]21c2ccccc2N2C(=O)[C@@H]3CCCN3[C@H]21,inactive
3,CC(=O)OC(c1nc2ccccc2c(=O)n1[C@H]1C[C@@]2(OC1=O)C(=O)Nc1ccccc12)C(C)C (stereo partly specified),inactive
4,CC(C)=C1NC(=O)[C@@H](C[C@@]2(O)C(=O)Nc3ccccc32)n2c1nc1ccccc1c2=O,inactive
5,CC(C)[C@@H](O)c1nc2ccccc2c(=O)n1[C@H]1C[C@]2(OC1=O)c1ccccc1N1C(=O)C(C)(C)N(O)[C@H]12,inactive
6,CC(=O)O[C@@H](c1nc2ccccc2c(=O)n1[C@H]1C[C@]2(OC1=O)c1ccccc1N1C(=O)C(C)(C)N[C@H]12)C(C)C,inactive
7,CC(=O)O[C@H](c1nc2ccccc2c(=O)n1[C@@H]1C[C@]2(OC1=O)c1ccccc1N1C(=O)C(C)(C)N(O)[C@H]12)C(C)C,inactive
8,CC(C)[C@H](O)c1nc2ccccc2c(=O)n1[C@H]1C[C@]2(OC1=O)c1ccccc1N1C(=O)C(C)(C)N(O)[C@H]12,inactive

# Test system: HeLa
# Experiment: Antiproliferative activity against human HeLa cells after 24 to 72 hrs by MTT assay
# Type: functional, cell-based
row,SMILES,Activity
1,CC1(C)C(=O)N2c3ccccc3[C@@]3(C[C@H]4n5c(nc6ccccc6c5=O)C(=O)C(C)(C)[C@@]4(O)O3)[C@@H]2N1O,inactive
2,O=C1N[C@H]2c3nc4ccccc4c(=O)n3[C@@H]1C[C@@]21c2ccccc2N2C(=O)[C@@H]3CCCN3[C@H]21,inactive
3,CC(=O)OC(c1nc2ccccc2c(=O)n1[C@H]1C[C@@]2(OC1=O)C(=O)Nc1ccccc12)C(C)C (stereo partly specified),inactive
4,CC(C)=C1NC(=O)[C@@H](C[C@@]2(O)C(=O)Nc3ccccc32)n2c1nc1ccccc1c2=O,inactive
5,CC(C)[C@@H](O)c1nc2ccccc2c(=O)n1[C@H]1C[C@]2(OC1=O)c1ccccc1N1C(=O)C(C)(C)N(O)[C@H]12,inactive
6,CC(=O)O[C@@H](c1nc2ccccc2c(=O)n1[C@H]1C[C@]2(OC1=O)c1ccccc1N1C(=O)C(C)(C)N[C@H]12)C(C)C,inactive
7,CC(=O)O[C@H](c1nc2ccccc2c(=O)n1[C@@H]1C[C@]2(OC1=O)c1ccccc1N1C(=O)C(C)(C)N(O)[C@H]12)C(C)C,inactive
8,CC(C)[C@H](O)c1nc2ccccc2c(=O)n1[C@H]1C[C@]2(OC1=O)c1ccccc1N1C(=O)C(C)(C)N(O)[C@H]12,inactive

# Test system: Bacillus subtilis
# Experiment: Antibacterial activity against Bacillus subtilis after 24 hrs by two fold dilution assay
# Type: functional, organism-based
row,SMILES,Activity
1,CC1(C)C(=O)N2c3ccccc3[C@@]3(C[C@H]4n5c(nc6ccccc6c5=O)C(=O)C(C)(C)[C@@]4(O)O3)[C@@H]2N1O,inactive
2,O=C1N[C@H]2c3nc4ccccc4c(=O)n3[C@@H]1C[C@@]21c2ccccc2N2C(=O)[C@@H]3CCCN3[C@H]21,inactive
3,CC(=O)OC(c1nc2ccccc2c(=O)n1[C@H]1C[C@@]2(OC1=O)C(=O)Nc1ccccc12)C(C)C (stereo partly specified),inactive
4,CC(C)=C1NC(=O)[C@@H](C[C@@]2(O)C(=O)Nc3ccccc32)n2c1nc1ccccc1c2=O,inactive
5,CC(C)[C@@H](O)c1nc2ccccc2c(=O)n1[C@H]1C[C@]2(OC1=O)c1ccccc1N1C(=O)C(C)(C)N(O)[C@H]12,inactive
6,CC(=O)O[C@@H](c1nc2ccccc2c(=O)n1[C@H]1C[C@]2(OC1=O)c1ccccc1N1C(=O)C(C)(C)N[C@H]12)C(C)C,inactive
7,CC(=O)O[C@H](c1nc2ccccc2c(=O)n1[C@@H]1C[C@]2(OC1=O)c1ccccc1N1C(=O)C(C)(C)N(O)[C@H]12)C(C)C,inactive
8,CC(C)[C@H](O)c1nc2ccccc2c(=O)n1[C@H]1C[C@]2(OC1=O)c1ccccc1N1C(=O)C(C)(C)N(O)[C@H]12,inactive

# Test system: K562
# Experiment: Antiproliferative activity against human K562 cells after 24 to 72 hrs by MTT assay
# Type: functional, cell-based
row,SMILES,Activity
1,CC1(C)C(=O)N2c3ccccc3[C@@]3(C[C@H]4n5c(nc6ccccc6c5=O)C(=O)C(C)(C)[C@@]4(O)O3)[C@@H]2N1O,inactive
2,O=C1N[C@H]2c3nc4ccccc4c(=O)n3[C@@H]1C[C@@]21c2ccccc2N2C(=O)[C@@H]3CCCN3[C@H]21,inactive
3,CC(=O)OC(c1nc2ccccc2c(=O)n1[C@H]1C[C@@]2(OC1=O)C(=O)Nc1ccccc12)C(C)C (stereo partly specified),inactive
4,CC(C)=C1NC(=O)[C@@H](C[C@@]2(O)C(=O)Nc3ccccc32)n2c1nc1ccccc1c2=O,inactive
5,CC(C)[C@@H](O)c1nc2ccccc2c(=O)n1[C@H]1C[C@]2(OC1=O)c1ccccc1N1C(=O)C(C)(C)N(O)[C@H]12,inactive
6,CC(=O)O[C@@H](c1nc2ccccc2c(=O)n1[C@H]1C[C@]2(OC1=O)c1ccccc1N1C(=O)C(C)(C)N[C@H]12)C(C)C,inactive
7,CC(=O)O[C@H](c1nc2ccccc2c(=O)n1[C@@H]1C[C@]2(OC1=O)c1ccccc1N1C(=O)C(C)(C)N(O)[C@H]12)C(C)C,inactive
8,CC(C)[C@H](O)c1nc2ccccc2c(=O)n1[C@H]1C[C@]2(OC1=O)c1ccccc1N1C(=O)C(C)(C)N(O)[C@H]12,inactive

# Test system: Escherichia coli
# Experiment: Antibacterial activity against Escherichia coli after 24 hrs by two fold dilution assay
# Type: functional, organism-based
row,SMILES,Activity
1,CC1(C)C(=O)N2c3ccccc3[C@@]3(C[C@H]4n5c(nc6ccccc6c5=O)C(=O)C(C)(C)[C@@]4(O)O3)[C@@H]2N1O,inactive
2,O=C1N[C@H]2c3nc4ccccc4c(=O)n3[C@@H]1C[C@@]21c2ccccc2N2C(=O)[C@@H]3CCCN3[C@H]21,inactive
3,CC(=O)OC(c1nc2ccccc2c(=O)n1[C@H]1C[C@@]2(OC1=O)C(=O)Nc1ccccc12)C(C)C (stereo partly specified),inactive
4,CC(C)=C1NC(=O)[C@@H](C[C@@]2(O)C(=O)Nc3ccccc32)n2c1nc1ccccc1c2=O,inactive
5,CC(C)[C@@H](O)c1nc2ccccc2c(=O)n1[C@H]1C[C@]2(OC1=O)c1ccccc1N1C(=O)C(C)(C)N(O)[C@H]12,inactive
6,CC(=O)O[C@@H](c1nc2ccccc2c(=O)n1[C@H]1C[C@]2(OC1=O)c1ccccc1N1C(=O)C(C)(C)N[C@H]12)C(C)C,inactive
7,CC(=O)O[C@H](c1nc2ccccc2c(=O)n1[C@@H]1C[C@]2(OC1=O)c1ccccc1N1C(=O)C(C)(C)N(O)[C@H]12)C(C)C,inactive
8,CC(C)[C@H](O)c1nc2ccccc2c(=O)n1[C@H]1C[C@]2(OC1=O)c1ccccc1N1C(=O)C(C)(C)N(O)[C@H]12,inactive
